How the values were obtained:
Type in all cases: cell-based
[1] = test system: human pancreatic islets from T1D subjects (T1DI); experiment: Human pancreatic islet treatments and qPCR, T1D islets (T1DI)
Method: (§1) To investigate how the fasting mimicking conditions affect Ngn3 expression and β-cell functions in human pancreatic cells, we performed ex vivo experiments using primary human pancreatic islets (FIG. 6A). Briefly, the pancreatic islets from healthy and T1D subjects (HI and T1DI, respectively) were cultured according to the manufacturer's instructions. The cultured islets were then treated with serum from subjects enrolled in a clinical trial testing the effects of a low protein and low calorie FMD lasting 5 days (NCT02158897)^17. Serum samples were collected at baseline and at day 5 of the fasting mimicking diet in 5 subjects.
(§2) In cells from normal human subjects, these effects were reversed by IGF-1 treatment (FIG. 6G). […]
(§3) Cells were treated for 36 h with: Standard medium: Celprogen, M35002-045 for healthy islets and M35001-035 for T1D islets). […] Total RNA was extracted using RNeasy Mini kit (Qiagen) according to the manufacturer's instructions and quantified with the use of the Nanodrop system (Thermo Scientific, Waltham, Mass., USA). […] The expression level were analyzed by quantitative real-time polymerase chain reaction (PCR) on a Roche LightCycler 480II . Gene expression was quantified using the comparative Ct method.

[2] = test system: human pancreatic islets from healthy subjects (HI); experiment: Human pancreatic islet treatments and qPCR, healthy islets (HI); settings: cells from normal human subjects, STS medium with IGF-1 40 ng/ml
Method: as §1, §2, §3

PKA = PKA activity in human pancreatic islets; settings: STS medium with IGF-1 40 ng/ml
Method: It also dampened the activity of mTOR, which is a key mediator of amino acid signaling (FIG. 6I). To further investigate the role of these nutrient sensing signaling pathways in regulating the expression of lineage markers (i.e. Sox2 and Ngn3), we tested the role of the Tor-S6K and PKA pathways, which function downstream of IGF-1, in the reprogramming of pancreatic cells. Human pancreatic islets cultured in standard medium were treated with rapamycin, which inhibits mTOR, and H89, which inhibits PKA. mTOR and PKA were implicated by our group and others in the regeneration of other cell types (Cheng et al., 2014; Yilmaz et al., 2012).
as §3
PKA activity was measured using the PKA kinase activity kit (Enzo Life Science, Inc. Farmingdale, N.Y., USA) according to manufacturer instructions.

Row | Compound | expression of lineage markers Sox2 and Ngn3 ([1]; T1DI in standard medium, 36 h, Rapamycin 20 nM, H89 20 uM) | effect on STS-induced expression of Sox2, Ngn3 and insulin [2] | effect on STS-increased insulin and Sox 2 gene expression ([1]; human T1D cells, STS medium with IGF-1 40 ng/ml) | effect on STS-reduced PKA activity (PKA; T1D human islets) | effect on STS-reduced PKA activity (PKA; healthy human islets)
1 | O=S(=O)(NCCNC/C=C/c1ccc(Br)cc1)c1cccc2cnccc12 [H89, reference compound] | not induced | – | – | – | –
2 | IGF-1: IGF1 (40 ng/ml) (ProSpec), growth factor added to STS medium | – | reversed | reversed | reversed | reversed

— patent US10660932B2, “Drug combinations and methods to stimulate embryonic-like regeneration to treat diabetes and other diseases” (UNIVERSITY OF SOUTHERN CALIFORNIA, priority 2016, dated 2020)
